Literature values in patent US20200222353A1, “Ketone ester and ketone salt compositions and methods for using the same” (priority 2019, published 2020).

Legend:
[1] = compared with D-BHB
[2] = in vivo

SMILES	breakdown in the body and use for energy [1]	crossing of the blood-brain barrier (BBB) [2]
C[C@H](O)CC(=O)O [L-BHB, (3 S)-3-hydroxybutanoic acid]	not to be broken down in the body and used for energy as quickly as D-BHB	–
C[C@@H](O)CC(=O)O [D-BHB, (3R)-3-hydroxybutanoic acid]	–	cross the blood-brain barrier
